Common to all, as to format: in vivo
Assay [1] has as its system velvetleaf (Abutilon theophrasti). Briefly: Test A postemergence. Conditions: Abutilon theophrasti, post-emergence, 240 h, Postemergence. The essentials:
(§1)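 Compounds were formulated in a non-phytotoxic solvent mixture with surfactant and applied as a preemergence directed soil spray after seeding, or sprayed postemergence over plants 2 to 10 cm tall at the one- to two-leaf stage. Evaluation after about 10 d compared treated with untreated controls, using a scale from 0 (no effect) to 100 (complete control).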

In assay [2] the test system is crabgrass, large (Digitaria sanguinalis). Kind of assay: Test A postemergence. Conditions: Digitaria sanguinalis, post-emergence, 240 h, Postemergence. In outline:
as §1

The subject of assay [3] is morningglory (Ipomoea spp.). Kind of assay: Test A postemergence. The note with it: Ipomoea, post-emergence, 240 h, Postemergence. The essentials: as §1
Assay [4] has as its system velvetleaf (Abutilon theophrasti). Kind of assay: Test A preemergence. The note with it: Abutilon theophrasti, pre-emergence, 240 h, 0 to 100 scale (0 no effect, 100 complete control), read-out: Plant response rating, Velvetleaf. In outline:
as §1

Assay [5] relates to wheat (Triticum aestivum). Briefly: Test A preemergence. Conditions: Triticum aestivum, pre-emergence, 240 h, 0 to 100 scale (0 no effect, 100 complete control), read-out: Plant response rating, Wheat. The essentials:
as §1

The next assay concerns corn (Zea mays). Briefly: Test A preemergence. The note with it: Zea mays, pre-emergence, 240 h, 0 to 100 scale (0 no effect, 100 complete control). In outline: as §1
The subject of assay [6] is crabgrass, large (Digitaria sanguinalis). Kind of assay: Test A preemergence. Conditions: Digitaria sanguinalis, pre-emergence, 240 h, 0 to 100 scale (0 no effect, 100 complete control), read-out: Plant response rating, Crabgrass, Large. In outline:
as §1

For assay [7], the system named is morningglory (Ipomoea spp.). Kind of assay: Test A preemergence. Conditions: Ipomoea, pre-emergence, 240 h; Preemergence, 125 g ai/ha; 0 to 100 scale (0 no effect, 100 complete control); read-out: Plant response rating, Morningglory. The essentials: as §1

Our source for the pest or weed control, plant injury and Corn plant response rating (crop injury, 0 = no effect, 100 = complete kill) values is patent US12077503B2, “Substituted cyclic amides and their use as herbicides” (FMC CORPORATION, priority 2015, dated 2024).

For `O=C1NCC(c2ccccc2)C1C(=O)Nc1ccccc1` (stereo not drawn) [Compound 1358], the pest or weed control at 125 g/ha in assay [1] (125 g ai/ha, visual rating about 10 d after treatment, read-out: Velvetleaf plant response rating (0 to 100 scale)) is 0%; in assay [2] (125 g ai/ha, visual rating about 10 d after treatment, read-out: Crabgrass, Large plant response rating (0 to 100 scale)) it was 0%; in assay [3] (125 g ai/ha, visual rating about 10 d after treatment, read-out: Morningglory plant response rating (0 to 100 scale)), 0%; in assay [4] (Preemergence, 125 g ai/ha), 0%; in assay [6] (Preemergence, 125 g ai/ha) it was 20%; in assay [7], 0%. The pest or weed control at 500 g/ha in assay [1] (500 g ai/ha, visual injury, 0 to 100 scale (0 no effect, 100 complete control), approx. 10 d, read-out: Plant response rating, Velvetleaf) is 0%; in assay [2] (500 g ai/ha, visual injury, 0 to 100 scale (0 no effect, 100 complete control), approx. 10 d, read-out: Plant response rating, Crabgrass, Large) it was 30%; in assay [3] (500 g ai/ha, visual injury, 0 to 100 scale (0 no effect, 100 complete control), approx. 10 d, read-out: Plant response rating, Morningglory), 0%; in assay [4] (500 g ai/ha, preemergence), 0%; in assay [6] (500 g ai/ha, preemergence) it was 80%. Moreover, the plant injury at 500 g/ha in assay [5] (500 g ai/ha, preemergence) was 50%. Moreover, the plant injury at 125 g/ha in assay [5] (Preemergence, 125 g ai/ha) was determined as 0%. For the same compound, in the assay with corn (Zea mays) (500 g ai/ha, preemergence), the Corn plant response rating (crop injury, 0 = no effect, 100 = complete kill) at 500 g/ha came out at 0%. The Corn plant response rating (crop injury, 0 = no effect, 100 = complete kill) at 125 g/ha in the assay with corn (Zea mays) (Preemergence, 125 g ai/ha) came to 0%.
